Read-outs that look alike come from different tables or passages of the source.
Target: Af Aio (arsenite oxidase, AioA/AioB) (Alcaligenes faecalis, UniProt Q7SIF4)
Settings: Mo active site of AioA, covalent

| Compound | X-ray crystallography, crystal soak (10 mM potassium antimonyl tartrate soak of ferricyanide-oxidized crystals, one oxo bridge to Mo, Sb with four further oxo/hydroxo groups, turnover intermediate) | X-ray crystallography, crystal soak (10 mM sodium arsenite soak of ferricyanide-oxidized crystals, mu-oxo bridged to Mo, two structures: As_d (8CH9, two oxo bridges) and As_c (8CFF, one bridge, possible)) |
| --- | --- | --- |
| [OH][Sb]([OH])[OH] [Sb, antimonite] | the Sb atom is sitting vertically to Mo and coordinated to the oxo ligand | – |
| O[As](O)O [As, arsenite] | – | the As ion is bound to Mo via one μ-oxo bridge (Mo-Ox-As) |

From article PMC10448176, “Arsenite oxidase in complex with antimonite and arsenite oxyanions: Insights into the catalytic mechanism” (The Journal of Biological Chemistry, 2023)
